Reference: patent US20140004243A1, “SALTY TASTE ENHANCER” (AJINOMOTO CO., INC., priority 2011, published 2014)

System: human
Assay: Sensory evaluation of salty taste enhancing activity of compound of the present invention in human
Assay type: in vivo
Conditions: n=5; for salty taste enhancing rate (fold) middle and after taste: after 2 seconds; for salty taste enhancing rate (fold) initial taste: first 2 seconds
Description: The intensity of a salty taste enhancing activity and the strength of a bitter taste were examined by a quantitative sensory evaluation test for the compound of the present invention (compounds of Examples 11 and 51).
The quantitative sensory evaluation test was performed as follows. Distilled water containing sodium chloride (0.8 g/dl) was mixed with capsazepine as a sample at 0.001 g/dl, or the compound of Example 11 or Example 51 at 0.0001 to 0.001 g/dl, and the level of a salty taste enhancing activity was measured. Distilled water containing 0.8 g/dl of sodium chloride was used as a control, and distilled water containing 0.9 g/dl or 1.0 g/dl of sodium chloride was used as a comparison target. Using a linear measurement method, a straight line showing 1.0-fold (0.8 g/dl), 1.13-fold (0.9 g/dl), 1.25-fold (1.0 g/dl) positions of sodium chloride concentration was drawn and the position showing the strength of the corresponding salty taste was put down thereon. As for the strength of a bitter taste, using the bitter taste of a solution obtained by mixing distilled water containing sodium chloride (0.8 g/dl) with capsazepine at 0.0001 to 0.001 g/dl as the standard, the strength of the bitter taste of the solution obtained by mixing the compound of Example 11 or Example 51 at 0.0001 to 0.001 g/dl was relatively evaluated by comparison. The points were marked based on 0 point for no bitter taste, and 5.0 points for the strength of the bitter taste of a solution containing 0.001 g/dl capsazepine. The test was performed at n=5. […] The “initial taste” means the evaluation of the strength of the salty taste for 2 seconds after placing in the mouth, and the “middle and after taste” means a combination of middle taste and after taste, which is the evaluation of the strength of the salty taste after 2 seconds from placing in the mouth.

[1] = sample 0.0001 g/dl in 0.8 g/dl sodium chloride
[2] = sample 0.0005 g/dl in 0.8 g/dl sodium chloride
[3] = sample 0.001 g/dl in 0.8 g/dl sodium chloride

## C[C@@H](NC(=S)NCCc1ccccc1)c1ccccc1 [Example 11]
[1]
  salty taste enhancing rate (fold) middle and after taste: 1.10 fold
  salty taste enhancing rate (fold) initial taste: 1.10 fold
[2]
  salty taste enhancing rate (fold) middle and after taste: 1.14 fold
  salty taste enhancing rate (fold) initial taste: 1.15 fold
[3]
  salty taste enhancing rate (fold) middle and after taste: 1.14 fold
  salty taste enhancing rate (fold) initial taste: 1.13 fold

## OC[C@@H](NC(=S)NCCc1ccccc1)c1ccccc1 [Example 51]
[1]
  salty taste enhancing rate (fold) middle and after taste: 1.11 fold
  salty taste enhancing rate (fold) initial taste: 1.09 fold
[2]
  salty taste enhancing rate (fold) middle and after taste: 1.17 fold
  salty taste enhancing rate (fold) initial taste: 1.13 fold
[3]
  salty taste enhancing rate (fold) middle and after taste: 1.17 fold
  salty taste enhancing rate (fold) initial taste: 1.17 fold

## Oc1cc2c(cc1O)CN(C(=S)NCCc1ccc(Cl)cc1)CCC2 [capsazepine]
[1]
  salty taste enhancing rate (fold) middle and after taste: 1.11 fold
  salty taste enhancing rate (fold) initial taste: 1.11 fold
